# Experimental data taken from patent US9931327B2, “Derivatives of 1-phenyl-2-pyridinyl alkyl alcohols as phosphodiesterase inhibitors” (Chiesi Farmaceutici S.p.A., priority 2011, dated 2018).
# Tested on: LPS-induced TNF-α release in peripheral blood mononuclear cells (PBMCs)
# Test: In vitro determination of PDE4 inhibitory activity in the PBMCs assay (LPS-induced TNF-α release)
# Format: cell-based, human
# Settings: PBMC; human PBMCs, LPS 3 ng/ml, 18 hours, TNF-α by ELISA; read-out: PDE4 inhibition (IC50, 50% inhibition of LPS-induced TNF-α release)
# Procedure, shortened: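 Cryopreserved human PBMCs (10^5 cells/well) pre-incubated 30 min with compound (10^−12 to 10^−6 M or 10^−3 to 10^−7 M), then stimulated with LPS 3 ng/ml for 18 h at 37 °C. TNF-α in medium by ELISA; IC50 as mean ± 95% confidence limits.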
row,SMILES,IC50 [nM]
1,"Cn1ccnc1S(=O)(=O)N1CCC[C@H]1C(=O)O[C@@H](Cc1c(Cl)c[n+]([O-])cc1Cl)c1ccc(OC(F)F)c(OCC2CC2)c1 [Compound 155, 3,5-dichloro-4-((S)-2-(3-(cyclopropylmethoxy)-4-(difluoromethoxy)phenyl)-2-((S)-1-(1-methyl-1H-imidazol-2-ylsulfonyl)pyrrolidine-2-carbonyloxy)ethyl)pyridine 1-oxide]",< 0.1
2,"CN(C)C(=O)c1cccc(C(=O)N2CCC[C@@H]2C(=O)O[C@@H](Cc2c(Cl)c[n+]([O-])cc2Cl)c2ccc(OC(F)F)c(OCC3CC3)c2)c1 [Compound 185, 3,5-dichloro-4-((S)-2-(3-(cyclopropylmethoxy)-4-(difluoromethoxy)phenyl)-2-((R)-1-(3-(dimethylcarbamoyl)benzoyl)pyrrolidine-2-carbonyloxy)ethyl)pyridine 1-oxide]",0.1 to 1
3,"O=C(O[C@@H](Cc1c(Cl)c[n+]([O-])cc1Cl)c1ccc(OC(F)F)c(OCC2CC2)c1)[C@@H]1SCCN1C(=O)c1ccccc1 [Compound 186, 4-((S)-2-((S)-3-benzoylthiazolidine-2-carbonyloxy)-2-(3-(cyclopropylmethoxy)-4-(difluoromethoxy)phenyl)ethyl)-3,5-dichloropyridine 1-oxide]",0.1 to 1
4,"CN(C)C(=O)c1cccc(C(=O)N2CCS[C@H]2C(=O)O[C@@H](Cc2c(Cl)c[n+]([O-])cc2Cl)c2ccc(OC(F)F)c(OCC3CC3)c2)c1 [Compound 187, 3,5-dichloro-4-((S)-2-(3-(cyclopropylmethoxy)-4-(difluoromethoxy)phenyl)-2-((S)-3-(3-(dimethylcarbamoyl)benzoyl)thiazolidine-2-carbonyloxy)ethyl)pyridine 1-oxide]",0.1 to 1
5,"CN(C)C(=O)c1cccc(CC(=O)N2CCS[C@H]2C(=O)O[C@@H](Cc2c(Cl)c[n+]([O-])cc2Cl)c2ccc(OC(F)F)c(OCC3CC3)c2)c1 [Compound 198, 3,5-dichloro-4-((S)-2-(3-(cyclopropylmethoxy)-4-(difluoro-methoxy)phenyl)-2-((S)-3-(2-(3-(dimethylcarbamoyl)phenyl)acetyl)-thiazolidine-2-carbonyloxy)ethyl)pyridine 1-oxide]",0.1 to 1
6,"N#Cc1ccccc1S(=O)(=O)N1CCS[C@H]1C(=O)O[C@@H](Cc1c(Cl)c[n+]([O-])cc1Cl)c1ccc(OC(F)F)c(OCC2CC2)c1 [Compound 200, 3,5-dichloro-4-((S)-2-((S)-3-(2-cyanophenylsulfonyl)thiazolidine-2-carbonyloxy)-2-(3-(cyclopropylmethoxy)-4-(difluoromethoxy)phenyl)ethyl)pyridine 1-oxide]",0.1 to 1
7,"O=C(O[C@@H](Cc1c(Cl)c[n+]([O-])cc1Cl)c1ccc(OC(F)F)c(OCC2CC2)c1)[C@@H]1SCCN1S(=O)(=O)c1ccc2c(c1)OCCO2 [Compound 201, 3,5-dichloro-4-((S)-2-(3-(cyclopropylmethoxy)-4-(difluoromethoxy)phenyl)-2-((S)-3-(2,3-dihydrobenzo[b][1,4]dioxin-6-ylsulfonyl)thiazolidine-2-carbonyloxy)ethyl)pyridine 1-oxide]",0.1 to 1
8,"Cc1cc(S(=O)(=O)N2CCS[C@H]2C(=O)O[C@@H](Cc2c(Cl)c[n+]([O-])cc2Cl)c2ccc(OC(F)F)c(OCC3CC3)c2)c(C)s1 [Compound 203, 3,5-dichloro-4-((S)-2-(3-(cyclopropylmethoxy)-4-(difluoromethoxy)phenyl)-2-((S)-3-(2,5-dimethylthiophen-3-ylsulfonyl)thiazolidine-2-carbonyloxy)ethyl)pyridine 1-oxide]",0.1 to 1
9,"N#Cc1ccc(S(=O)(=O)N2CCS[C@H]2C(=O)O[C@@H](Cc2c(Cl)c[n+]([O-])cc2Cl)c2ccc(OC(F)F)c(OCC3CC3)c2)cc1 [Compound 206, 3,5-dichloro-4-((S)-2-((S)-3-(4-cyanophenylsulfonyl)thiazolidine-2-carbonyloxy)-2-(3-(cyclopropylmethoxy)-4-(difluoromethoxy)phenyl)ethyl)pyridine 1-oxide]",< 0.1
